Reference: patent EP0558673B1, “RETROVIRAL PROTEASE INHIBITORS” (MONSANTO COMPANY, priority 1990, dated 1992)

Legend:
HIV-1 = assay: CEM cell assay: HIV inhibition assay of acutely infected cells (tetrazolium/MTT colorimetric); type: cell-based; details: Human immunodeficiency virus 1, CCRF-CEM, 168 h; Table 17; CEM cells acutely infected with HIV-1, 7 days, MTT readout; read-out: EC₅₀
Protocol: The effectiveness of the compounds listed in Table 16 were determined in the above-described enzyme assay and in a CEM cell assay.
Methods 20, 309-321 (1988).

HIV protease = molecular target: T1, HIV protease (Human immunodeficiency virus type 1 group M subtype B, UniProt P04585); assay: HIV protease enzyme assay (fluorescence, substrate 2-aminobenzoyl-Ile-Nle-Phe(p-NO₂)-Gln-ArgNH₂); type: biochemical; details: Table 16; enzyme 12.3 nanomolar, substrate 80 µM, pH 6.4, ambient temperature; read-out: IC₅₀
T1 construct: final enzyme concentration of 12.3 nanomolar, based on a molecular weight of 10,780
From the text: The compounds of the present invention are effective HIV protease inhibitors. Utilizing an enzyme assay as described below, the compounds set forth in the examples herein disclosed inhibited the HIV enzyme. The preferred compounds of the present invention and their calculated IC₅₀ (inhibiting concentration 50%, i.e., the concentration at which the inhibitor compound reduces enzyme activity by 50%) values are shown in Table 16. The enzyme method is described below. The substrate is 2-aminobenzoyl-Ile-Nle-Phe(p-NO₂)-Gln-ArgNH₂. The positive control is MVT-101 (Miller, M. et al, Science, 246, 1149 (1989)] The assay conditions are as follows: Assay buffer: 20 mM sodium phosphate, pH 6.4 20% glycerol 1 mM EDTA 1 mM DTT 0.1% CHAPS
The above described substrate is dissolved in DMSO, then diluted 10 fold in assay buffer. Final substrate concentration in the assay is 80 µM.
HIV protease is diluted in the assay buffer to a final enzyme concentration of 12.3 nanomolar, based on a molecular weight of 10,780.
The final concentration of DMSO is 14% and the final concentration of glycerol is 18%. The test compound is dissolved in DMSO and diluted in DMSO to 10x the test concentration; 10µl of the enzyme preparation is added, the materials mixed and then the mixture is incubated at ambient temperature for 15 minutes. The enzyme reaction is initiated by the addition of 40µl of substrate. The increase in fluorescence is monitored at 4 time points (0, 8, 16 and 24 minutes) at ambient temperature. Each assay is carried out in duplicate wells.

| SMILES | EC50 (HIV-1) | IC50 (HIV protease) |
| --- | --- | --- |
| CC(C)CCN(C[C@@H](O)[C@H](Cc1ccccc1)NC(=O)[C@@H](NS(=O)(=O)CCc1ccccc1)C(C)(C)C)C(=O)NC(C)(C)C (relative stereo) [Compound 1, 3-Thia-4,7,11-triazadodecan-12-amide, N,5-bis(1,1-dimethylethyl)-9-hydroxy-11-(3-methylbutyl)-6-oxo-8-(phenylmethyl)-1-phenyl-, 2,2-dioxide-,5S-,(5R*,8R*,9S*)]] | 510 nM | 22 nM |
| CC(C)CCN(C[C@@H](O)[C@H](Cc1ccccc1)NC(=O)[C@@H](NS(=O)(=O)CCc1ccccc1)C(C)C)C(=O)NC(C)(C)C (relative stereo) [Compound 2, 3-Thia-4,7,11-triazadodecan-12-amide, N-(1,1-dimethylethyl)-5-(1-methylethyl)-9-hydroxy-11-(3-methylbutyl)-6-oxo-8-(phenylmethyl)-1-phenyl-, 2,2-dioxide-,[5S-,(5R*,8R*,9S*)]] | 440 nM | 29 nM |
| CC(C)CCN(C[C@@H](O)[C@H](Cc1ccccc1)NC(=O)[C@H](CC(N)=O)NS(=O)(=O)CCc1ccccc1)C(=O)NC(C)(C)C (relative stereo) [Compound 3, 3-Thia-4,7,11-triazadodecan-12-amide, N-(1,1-dimethylethyl)-5-(2-amino-2-oxo-ethyl)-9-hydroxy-11-(3-methylbutyl)-6-oxo-8-(phenylmethyl)-1-phenyl-, 2,2-dioxide-,[5S-,(5R*,8R*,9S*)]] | – | 24 nM |
